Measurements reported in PubChem BioAssay (NCI).
Values joined by “and” are separate entries in the source; they are usually repeats but may differ in a detail not shown here. Identical values can stand only once.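 96-well plates; 48 h exposure; 5 concentrations. Endpoints by linear interpolation between flanking doses. Not reached: highest tested concentration assigned. Abbreviation: GI50, concentration required for 50% inhibition of growth. The concentration for full growth arrest is given as TGI.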

Legend:
Assay in all cases: NCI-60 cell line screen, 48 h
[1] = tested on: A498 renal
[2] = tested on: EKVX NSCLC
[3] = tested on: MALME-3M melanoma
[4] = tested on: MDA-MB-231 breast
[5] = tested on: OVCAR-3 ovarian
[6] = tested on: OVCAR-4 ovarian
[7] = tested on: OVCAR-5 ovarian
[8] = tested on: OVCAR-8 ovarian
[9] = tested on: SW-620 colon
[10] = tested on: UACC-62 melanoma

| Structure (SMILES) | GI50 [1] | TGI [1] | GI50 [2] | TGI [2] | GI50 [3] | TGI [3] | GI50 [4] [µM] | TGI [4] | GI50 [5] | TGI [5] | GI50 [6] | TGI [6] | GI50 [7] [µM] | TGI [7] | GI50 [8] | TGI [8] | GI50 [9] | TGI [9] | GI50 [10] | TGI [10] |
| --- | --- | --- | --- | --- | --- | --- | --- | --- | --- | --- | --- | --- | --- | --- | --- | --- | --- | --- | --- | --- |
| CCc1cc(Cc2cc(CC)cc(C(C)(C)C)c2O)c(O)c(C(C)(C)C)c1 | 1.76 µM | 5.39 µM | 2.24 µM | 6.77 µM | 1.16 µM | 3.48 µM | 1.87 | 3.92 µM | 2.2 µM | 5.33 µM | 3.56 µM | 12.7 µM | 9.69 | 21.4 µM | 3.45 µM | 12.3 µM | 2.25 µM | 7.07 µM | 2.4 µM | 7.85 µM |
| CC(NC(=O)C1(N)CCCC1)C(=O)O (stereo not given) |  | > 100 µM |  | > 100 µM |  | > 100 µM |  | > 100 µM |  | > 100 µM |  | > 100 µM |  | > 100 µM |  | > 100 µM |  | > 100 µM |  | > 100 µM |
| Nc1c2c(c(O)c3c1=C(CO)C=N3)=NCCS2=O (stereo not given) | 12.2 µM | 25.3 µM | 2.51 µM | 7.51 µM | 0.253 µM | 0.739 µM | 2.82 | 9.69 µM | 0.28 µM | 0.986 µM | 0.312 µM | 1.22 µM | 1.66 | 3.91 µM | 1.99 µM | 4.78 µM | 2.1 µM | 4.22 µM | 1.71 µM | 3.39 µM |
| COC(=O)c1cccc(COc2ccc([N+](=O)[O-])cc2Cl)c1 |  | > 100 µM |  | > 100 µM |  | > 100 µM |  | > 100 µM |  | > 100 µM |  | > 100 µM |  | > 100 µM |  | > 100 µM |  | > 100 µM |  | > 100 µM |
| N[C@@H](Cc1ccc(N(CCCl)CCCl)cc1)C(=O)O | 33.2 µM and 49.3 µM | > 100 µM and > 78.2 µM and 177 µM | 51.3 µM and 37.5 µM and 52 µM | > 100 µM and 58.3 µM and 128 µM | 13.7 µM and 18.3 µM | 30.5 µM and 35.3 µM and 66 µM | > 100 | > 100 µM and 134 µM | 22.5 µM and 10.4 µM | 55.3 µM and 26.3 µM and 105 µM | 32.1 µM and 18.6 µM | > 100 µM and 48.2 µM and 84.3 µM | 19.1 | > 100 µM and 64.7 µM and 140 µM | 27.7 µM and 19.7 µM | > 100 µM and 50.9 µM and 110 µM | 19.5 µM and 17.2 µM | > 100 µM and 56.8 µM and 157 µM | 8.7 µM and 6.39 µM | > 100 µM and 22.2 µM and 46.2 µM |
| O=C(O)c1cccc(F)c1C(=O)c1ccc2ccccc2c1 |  | > 100 µM |  | > 100 µM |  | > 100 µM |  | > 100 µM |  | > 100 µM |  | > 100 µM |  | > 100 µM |  | > 100 µM |  | > 100 µM |  | > 100 µM |
| N=C(N)c1ccc(-c2ccc(-c3ccccc3)o2)o1 | 3.03 µM | 11.7 µM | 2.34 µM | 9.37 µM | 1.75 µM | 3.53 µM | 2.04 | 4.9 µM | 3.13 µM | 11.9 µM | 3.48 µM | 14.5 µM | 2.7 | 10.9 µM | 4 µM | 16.9 µM | 1.79 µM | 4.2 µM | 1.93 µM | 3.82 µM |
| COc1ccccc1NC(=O)C(=O)C(C#N)CC(C)(C)C=O (stereo not given) |  | > 100 µM |  | > 100 µM |  | > 100 µM |  | > 100 µM |  | > 100 µM |  | > 100 µM |  | > 100 µM |  | > 100 µM |  | > 100 µM |  | > 100 µM |
| O=P1(NCCCl)OCCC(OO)N1CCCl (stereo not given) |  | > 93.3 µM |  | > 100 µM |  | 31.7 µM |  | > 100 µM |  | 53 µM |  | 39.1 µM |  | > 100 µM |  | > 100 µM |  | 30.5 µM |  | 63.7 µM |
| CN(CC(=O)O)Cc1c[nH]c2ccccc12 |  | > 100 µM |  | > 100 µM |  | > 100 µM |  | > 100 µM |  | > 100 µM |  | > 100 µM |  | > 100 µM |  | > 100 µM |  | > 100 µM |  | > 100 µM |
